Results as given in PubChem BioAssay AID248 (DTP/NCI, 2004).
Where “and” joins values, the source holds several entries; their conditions need not be identical. Identical values can stand only once. Inconclusive results and toxic doses are left out. Cut-off read from the data, not from the text of the source: active = T/C of 150% or more; inactive = T/C below 125%. Square brackets hold non-standard residues; d marks the D form. Peptide text beside a SMILES is read from it. * marks the point of attachment. ξ: configuration not given here. Boc = CC(C)(C)OC(=O)*; ξP = O=C(O)C1CCCN1

System: L1210 leukemia ip in BDF1 mice, survival T/C
Assay: NCI In Vivo Anticancer Drug Screen. Data for tumor model L1210 Leukemia (intraperitoneal) in B6D2F1 (BDF1) mice
Settings: endpoint: mean survival time, higher = longer survival
Outline: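 Tumor cells were implanted, animals were treated, and survival was followed. The result divides the treated measurement by the vehicle-control measurement.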

[1] = dose: 100.0 mg/kg/injection, schedule: Q01DX009 (ip), vehicle: saline
[2] = dose: 200.0 mg/kg/injection, schedule: Q01DX009 (ip), vehicle: saline
[3] = dose: 400.0 mg/kg/injection, schedule: Q01DX009 (ip), vehicle: saline
[4] = dose: 100.0 mg/kg/injection, schedule: Q01DX009 (ip), vehicle: saline with Tween-80
[5] = dose: 100.0 mg/kg/injection, schedule: Q04DX003 (ip), vehicle: saline with Tween-80
[6] = dose: 200.0 mg/kg/injection, schedule: Q04DX003 (ip), vehicle: saline with Tween-80
[7] = dose: 400.0 mg/kg/injection, schedule: Q04DX003 (ip), vehicle: saline with Tween-80
[8] = dose: 100.0 mg/kg/injection, schedule: Q04DX003 (ip), vehicle: saline
[9] = dose: 200.0 mg/kg/injection, schedule: Q04DX003 (ip), vehicle: saline
[10] = dose: 400.0 mg/kg/injection, schedule: Q04DX003 (ip), vehicle: saline
[11] = dose: 100.0 mg/kg/injection, schedule: Q01DX001 (ip), vehicle: saline
[12] = dose: 200.0 mg/kg/injection, schedule: Q01DX001 (ip), vehicle: saline
[13] = dose: 400.0 mg/kg/injection, schedule: Q01DX001 (ip), vehicle: saline
[14] = dose: 75.0 mg/kg/injection, schedule: Q01DX001 (ip), vehicle: saline
[15] = dose: 100.0 mg/kg/injection, schedule: Q01DX009 (ip), vehicle: Klucel (hydroxypropylcellulose) (HPC)
[16] = dose: 200.0 mg/kg/injection, schedule: Q01DX009 (ip), vehicle: Klucel (hydroxypropylcellulose) (HPC)
[17] = dose: 100.0 mg/kg/injection, schedule: Q04DX003 (ip), vehicle: Klucel (hydroxypropylcellulose) (HPC)
[18] = dose: 200.0 mg/kg/injection, schedule: Q04DX003 (ip), vehicle: Klucel (hydroxypropylcellulose) (HPC)

Measured: T/C

C[N+](C)(C)CCP(=O)([O-])O
inactive: [1] 101 % of control | [2] 93 % of control | [3] 95 % of control

CN(C)/N=N/c1nc[nH]c1C#N
inactive: [4] 107 % of control | [5] 110 % of control | dose: 200.0 mg/kg/injection, schedule: Q01DX009 (ip), vehicle: saline with Tween-80 115 % of control | [6] 98 % of control | [7] 102 % of control

C/C(Cl)=C/CC1=C(O)c2ccccc2C(=O)C1=O
inactive: dose: 25.0 mg/kg/injection, schedule: Q01DX001 (ip), vehicle: water 104 % of control | dose: 50.0 mg/kg/injection, schedule: Q01DX001 (ip), vehicle: water 101 % of control | dose: 75.0 mg/kg/injection, schedule: Q01DX001 (ip), vehicle: water 97 % of control

Clc1ccc(SCC#CCOc2ccc(Cl)cc2Cl)cc1
inactive: dose: 100.0 mg/kg/injection, schedule: Q01DX001 (ip), vehicle: Klucel (hydroxypropylcellulose) (HPC) 89 % of control | dose: 200.0 mg/kg/injection, schedule: Q01DX001 (ip), vehicle: Klucel (hydroxypropylcellulose) (HPC) 95 % of control | dose: 400.0 mg/kg/injection, schedule: Q01DX001 (ip), vehicle: Klucel (hydroxypropylcellulose) (HPC) 97 % of control

COCCN1CCC(C)(CO)C1 (stereo unspecified)
inactive: [8] 87 % of control | [9] 93 % of control | [10] 92 % of control

O=S(O)O
inactive: [11] 95 % of control | [1] 103 % of control | [12] 97 % of control | [2] 97 % of control | [13] 103 % of control | [3] 100 % of control

Nc1ccc2c(c1)C(=NO)c1cc(N)ccc1-2
inactive: dose: 100.0 mg/kg/injection, schedule: Q01DX001 (ip), vehicle: carboxymethylcellulose (CMC) 106 % of control | dose: 200.0 mg/kg/injection, schedule: Q01DX001 (ip), vehicle: carboxymethylcellulose (CMC) 108 % of control

CCOC(=O)C(C#N)=C1CCN(Cc2ccccc2)CC1
inactive: [11] 96 % of control | [12] 99 % of control | [13] 105 % of control

Nc1ccc(NC=O)c(Cl)c1
inactive: [8] 102 % of control | [9] 108 % of control | [10] 102 % of control

OCC1OC(OC2CCCCC2)C(O)C(O)C1O (stereo unspecified)
inactive: [8] 100 % of control | [9] 96 % of control | [10] 102 % of control

COC(=O)C1CCCN1C(=O)CNC(=O)OC(C)(C)C (stereo not drawn) (Boc-Gly-[ξP]-OMe)
inactive: [11] 103 % of control | [12] 97 % of control | [13] 94 % of control

COc1cccc(/C2=C/CCCCCC2)c1
inactive: dose: 50.0 mg/kg/injection, schedule: Q01DX009 (ip), vehicle: acetone 95 % of control | dose: 100.0 mg/kg/injection, schedule: Q01DX009 (ip), vehicle: acetone 107 % of control | dose: 100.0 mg/kg/injection, schedule: Q04DX003 (ip), vehicle: acetone 100 % of control | dose: 200.0 mg/kg/injection, schedule: Q01DX009 (ip), vehicle: acetone 93 % of control | dose: 200.0 mg/kg/injection, schedule: Q04DX003 (ip), vehicle: acetone 105 % of control | dose: 400.0 mg/kg/injection, schedule: Q04DX003 (ip), vehicle: acetone 91 % of control

BrC1C=CC=CN1C/C=C/CN1C=CC=CC1Br (stereo unspecified)
inactive: [14] 96 % of control | dose: 150.0 mg/kg/injection, schedule: Q01DX001 (ip), vehicle: saline 97 % of control

CCOP(=S)(OCC)SCc1ccccc1
inactive: [5] 97 % of control | [6] 98 % of control | [7] 106 % of control

CC(=O)OCCOC(=O)Nc1cccc2ccccc12
inactive: dose: 100.0 mg/kg/injection, schedule: Q04DX002 (ip), vehicle: Klucel (hydroxypropylcellulose) (HPC) 100 % of control | dose: 200.0 mg/kg/injection, schedule: Q04DX002 (ip), vehicle: Klucel (hydroxypropylcellulose) (HPC) 100 % of control | dose: 400.0 mg/kg/injection, schedule: Q04DX002 (ip), vehicle: Klucel (hydroxypropylcellulose) (HPC) 97 % of control

Cc1cc(Cl)ccc1NC(=O)c1ccccc1Cl
inactive: [15] 101 % of control | [8] 109 % of control | [16] 90 % of control | [9] 106 % of control | dose: 400.0 mg/kg/injection, schedule: Q01DX009 (ip), vehicle: Klucel (hydroxypropylcellulose) (HPC) 89 % of control | [10] 106 % of control

CC(C)(C)c1ccc(C(=O)O)cc1Br
inactive: dose: 50.0 mg/kg/injection, schedule: Q04DX003 (ip), vehicle: other 104 % of control | dose: 100.0 mg/kg/injection, schedule: Q04DX003 (ip), vehicle: other 113 % of control | dose: 200.0 mg/kg/injection, schedule: Q04DX003 (ip), vehicle: other 98 % of control

O=C(Nc1ccc([N+](=O)[O-])cc1[N+](=O)[O-])C(Cl)(Cl)Cl
inactive: [5] 94 % of control | [6] 96 % of control | [7] 105 % of control

O=C(CNC(=O)OCc1ccccc1)NCCCCCCNCCCCCCNC(=O)CNC(=O)OCc1ccccc1
inactive: dose: 1.25 mg/kg/injection, schedule: Q01DX Z (ip), vehicle: saline 93 % of control | dose: 2.5 mg/kg/injection, schedule: Q01DX Z (ip), vehicle: saline 93 % of control | dose: 5.0 mg/kg/injection, schedule: Q01DX Z (ip), vehicle: saline 94 % of control | dose: 10.0 mg/kg/injection, schedule: Q01DX Z (ip), vehicle: saline 93 % of control

Cc1cc(Cl)c(OC(=O)Nc2ccccc2F)cc1C
inactive: dose: 25.0 mg/kg/injection, schedule: Q01DX009 (ip), vehicle: saline with Tween-80 106 % of control | dose: 50.0 mg/kg/injection, schedule: Q01DX009 (ip), vehicle: saline with Tween-80 114 % of control | [4] 103 % of control and 105 % of control

O=C1CN(CCl)C(=O)CN1CCl
inactive: dose: 50.0 mg/kg/injection, schedule: Q01DX009 (ip), vehicle: water 100 % of control | dose: 100.0 mg/kg/injection, schedule: Q01DX009 (ip), vehicle: water 101 % of control | dose: 100.0 mg/kg/injection, schedule: Q04DX003 (ip), vehicle: water 113 % of control | dose: 200.0 mg/kg/injection, schedule: Q04DX003 (ip), vehicle: water 110 % of control | dose: 400.0 mg/kg/injection, schedule: Q04DX003 (ip), vehicle: water 113 % of control

CCOC(=O)C(NC(C)=O)(C(=O)OCC)C(C)C(O)c1ccc(OC)c(OC)c1O (stereo unspecified)
inactive: [8] 92 % of control | [9] 113 % of control | [10] 103 % of control

COC(=O)C1CC(C)(C)N(C)C1(C)C (stereo unspecified)
inactive: [15] 101 % of control | [17] 100 % of control | [16] 106 % of control and 92 % of control | [18] 103 % of control

C/C=C1/CN2CCC1CC2C(O)c1ccnc2ccc(O)cc12 (stereo unspecified)
inactive: [14] 101 % of control

C=C1N(C)c2ccccc2C1(C)C
inactive: dose: 0.5 mg/kg/injection, schedule: Q01DX015 (ip), vehicle: carboxymethylcellulose (CMC) 97 % of control | dose: 1.0 mg/kg/injection, schedule: Q01DX015 (ip), vehicle: carboxymethylcellulose (CMC) 101 % of control | dose: 2.0 mg/kg/injection, schedule: Q01DX015 (ip), vehicle: carboxymethylcellulose (CMC) 104 % of control | dose: 4.0 mg/kg/injection, schedule: Q01DX015 (ip), vehicle: carboxymethylcellulose (CMC) 97 % of control and 123 % of control | dose: 8.0 mg/kg/injection, schedule: Q01DX015 (ip), vehicle: carboxymethylcellulose (CMC) 123 % of control

CCC(CCl)NC(=O)Nc1cccc2c1CCCC2 (stereo unspecified)
inactive: [17] 98 % of control | [18] 96 % of control | dose: 400.0 mg/kg/injection, schedule: Q04DX003 (ip), vehicle: Klucel (hydroxypropylcellulose) (HPC) 98 % of control

CNC(=O)Nc1cc2ccccc2o1
inactive: [5] 101 % of control | [6] 92 % of control | [7] 92 % of control

NC(=O)C(=O)NCCCN1CC1
inactive: dose: 12.5 mg/kg/injection, schedule: Q04DX003 (ip), vehicle: Klucel (hydroxypropylcellulose) (HPC) 102 % of control | dose: 25.0 mg/kg/injection, schedule: Q04DX003 (ip), vehicle: Klucel (hydroxypropylcellulose) (HPC) 98 % of control | dose: 50.0 mg/kg/injection, schedule: Q04DX003 (ip), vehicle: Klucel (hydroxypropylcellulose) (HPC) 106 % of control | [17] 118 % of control

CCOC(=O)CNC(=O)CO
inactive: dose: 100.0 mg/kg/injection, schedule: Q01DX001 (ip), vehicle: other 101 % of control | dose: 200.0 mg/kg/injection, schedule: Q01DX001 (ip), vehicle: other 95 % of control | dose: 400.0 mg/kg/injection, schedule: Q01DX001 (ip), vehicle: other 101 % of control
